Results: patent US20100298141A1, “SUBSTITUTED PYRIDINE N-OXIDE HERBICIDES” (E. I. DU PONT DE NEMOURS AND COMPANY, priority 2007, published 2010)

Experiments:
giant foxtail [1] = assay: Test A pre-/postemergence greenhouse test; format: in vivo, Setaria faberi; details: for Foxtail, Giant plant response rating: 0 to 100 scale
In short: (§1)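 Visual injury ratings, made relative to untreated controls roughly ten days after treatment, cover both preemergence and postemergence application. Compounds in a surfactant-containing non-phytotoxic solvent were sprayed onto the soil surface after sowing and, simultaneously, onto young plants at the one- to two-leaf stage.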

morningglory = assay: Test A pre-/postemergence greenhouse test; format: in vivo, Ipomoea spp.; details: for Morningglory plant response rating: 0 to 100 scale
In short: as §1

redroot pigweed = assay: Test A pre-/postemergence greenhouse test; format: in vivo, Amaranthus retroflexus; details: for Pigweed plant response rating: 0 to 100 scale
In short: as §1

wheat [2] = assay: Test A pre-/postemergence greenhouse test; format: in vivo, Triticum aestivum; details: for Wheat plant response rating: 0 to 100 scale
In short: as §1

blackgrass = assay: Test C pre-/postemergence test; format: in vivo, Alopecurus myosuroides
In short: (§2)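 Compounds in a non-phytotoxic solvent with surfactant applied preemergence to seeded pots and, at the same time, postemergence to plants 2–18 cm tall (1- to 4-leaf stage). Paddy tests: pots flooded to 3 cm, compound applied into the water, depth held throughout.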

downy brome = assay: Test C pre-/postemergence test; format: in vivo, Bromus tectorum
In short: as §2

wheat [3] = assay: Test C pre-/postemergence test; format: in vivo, Triticum aestivum
In short: as §2

wild oat = assay: Test C pre-/postemergence test; format: in vivo, Avena fatua
In short: as §2

catchweed bedstraw = assay: Test C pre-/postemergence test; format: in vivo, Galium aparine
In short: as §2

Surinam grass = assay: Test C pre-/postemergence test; format: in vivo, Brachiaria decumbens
In short: as §2

cocklebur = assay: Test C pre-/postemergence test; format: in vivo, Xanthium strumarium
In short: as §2

woolly cupgrass = assay: Test C pre-/postemergence test; format: in vivo, Eriochloa villosa
In short: as §2

giant foxtail [4] = assay: Test C pre-/postemergence test; format: in vivo, Setaria faberii
In short: as §2

kochia = assay: Test C pre-/postemergence test; format: in vivo, Kochia scoparia
In short: as §2

lambsquarters = assay: Test C pre-/postemergence test; format: in vivo, Chenopodium album
In short: as §2

eastern black nightshade = assay: Test C pre-/postemergence test; format: in vivo, Solanum ptycanthum
In short: as §2

common ragweed = assay: Test C pre-/postemergence test; format: in vivo, Ambrosia elation
In short: as §2

[5] = tested on: common (oilseed) sunflower; assay: Test C pre-/postemergence test; format: in vivo, Helianthus annuus
In short: as §2

velvetleaf = assay: Test C pre-/postemergence test; format: in vivo, Abutilon theophrasti
In short: as §2

[6] = Postemergence, 125 g ai/ha, 0 to 100 scale where 0 is no effect and 100 is complete control
[7] = Postemergence, 500 g ai/ha, 0 is no effect, 100 is complete control
[8] = Preemergence, 125 g ai/ha, 0 no effect, 100 complete control
[9] = Preemergence, 500 g ai/ha, 0 no effect, 100 complete control
[10] = 62 g ai/ha, Preemergence, scale 0 to 100
[11] = 125 g ai/ha, preemergence, scale 0 (no effect) to 100 (complete control)
[12] = Preemergence, 31 g ai/ha, scale 0 to 100 (0 no effect, 100 complete control)
[13] = preemergence, 250 g ai/ha, scale 0 (no effect) to 100 (complete control)

CC(C)c1cc[n+]([O-])c([S+]([O-])Cc2c(C(F)(F)F)nn(C)c2OC(F)F)c1 (stereo not shown) [Compound 109]
Plant response rating, Foxtail, Giant (giant foxtail [1]; [6]): 80 | Foxtail, Giant plant response rating (giant foxtail [1]; [7]): 90 | Foxtail, Giant plant response rating (giant foxtail [1]; [8]): 90 | Foxtail, Giant plant response rating (giant foxtail [1]; [9]): 100 | Plant response rating, Morningglory (morningglory; [6]): 60 | Morningglory plant response rating (morningglory; [7]): 90 | Morningglory plant response rating (morningglory; [8]): 60 | Morningglory plant response rating (morningglory; [9]): 100 | Plant response rating, Pigweed (redroot pigweed; [6]): 60 | Pigweed plant response rating (redroot pigweed; [7]): 90 | Pigweed plant response rating (redroot pigweed; [8]): 100 | Pigweed plant response rating (redroot pigweed; [9]): 100 | Plant response rating, Wheat (wheat [2]; [6]): 60 | Wheat plant response rating (wheat [2]; [7]): 70 | Wheat plant response rating (wheat [2]; [8]): 60 | Wheat plant response rating (wheat [2]; [9]): 100 | Blackgrass plant response rating (blackgrass; [10]): 70 | Blackgrass plant response rating (blackgrass; [11]): 80 | Plant response rating, Blackgrass (blackgrass; [12]): 40 | Blackgrass plant response rating (blackgrass; [13]): 80 | Bromegrass, Downy plant response rating (downy brome; [10]): 40 | Bromegrass, Downy plant response rating (downy brome; [11]): 95 | Plant response rating, Bromegrass, Downy (downy brome; [12]): 40 | Bromegrass, Downy plant response rating (downy brome; [13]): 100 | Wheat plant response rating (wheat [3]; [10]): 50 | Wheat plant response rating (wheat [3]; [11]): 65 | Plant response rating, Wheat (wheat [3]; [12]): 10 | Wheat plant response rating (wheat [3]; [13]): 100 | Oat, Wild plant response rating (wild oat; [10]): 70 | Oat, Wild plant response rating (wild oat; [11]): 90 | Plant response rating, Oat, Wild (wild oat; [12]): 50 | Oat, Wild plant response rating (wild oat; [13]): 98 | Galium plant response rating (catchweed bedstraw; [10]): 90 | Galium plant response rating (catchweed bedstraw; [11]): 100 | Plant response rating, Galium (catchweed bedstraw; [12]): 60 | Galium plant response rating (catchweed bedstraw; [13]): 100 | Surinam Grass plant response rating (Surinam grass; [10]): 95 | Surinam Grass plant response rating (Surinam grass; [11]): 100 | Plant response rating, Surinam Grass (Surinam grass; [12]): 50 | Surinam Grass plant response rating (Surinam grass; [13]): 100 | Cocklebur plant response rating (cocklebur; [10]): 0 | Cocklebur plant response rating (cocklebur; [11]): 0 | Plant response rating, Cocklebur (cocklebur; [12]): 0 | Cocklebur plant response rating (cocklebur; [13]): 60 | Cupgrass, Woolly plant response rating (woolly cupgrass; [10]): 95 | Cupgrass, Woolly plant response rating (woolly cupgrass; [11]): 98 | Plant response rating, Cupgrass, Woolly (woolly cupgrass; [12]): 70 | Cupgrass, Woolly plant response rating (woolly cupgrass; [13]): 98 | Foxtail, Giant plant response rating (giant foxtail [4]; [10]): 100 | Foxtail, Giant plant response rating (giant foxtail [4]; [11]): 100 | Plant response rating, Foxtail, Giant (giant foxtail [4]; [12]): 100 | Foxtail, Giant plant response rating (giant foxtail [4]; [13]): 100 | Kochia plant response rating (kochia; [10]): 90 | Kochia plant response rating (kochia; [11]): 100 | Plant response rating, Kochia (kochia; [12]): 80 | Kochia plant response rating (kochia; [13]): 100 | Lambsquarters plant response rating (lambsquarters; [10]): 100 | Lambsquarters plant response rating (lambsquarters; [11]): 100 | Plant response rating, Lambsquarters (lambsquarters; [12]): 100 | Lambsquarters plant response rating (lambsquarters; [13]): 100 | Nightshade plant response rating (eastern black nightshade; [10]): 80 | Nightshade plant response rating (eastern black nightshade; [11]): 95 | Plant response rating, Nightshade (eastern black nightshade; [12]): 20 | Nightshade plant response rating (eastern black nightshade; [13]): 100 | Ragweed plant response rating (common ragweed; [10]): 50 | Ragweed plant response rating (common ragweed; [11]): 55 | Plant response rating, Ragweed (common ragweed; [12]): 50 | Ragweed plant response rating (common ragweed; [13]): 80 | Sunflower plant response rating [5, 10]: 50 | Sunflower plant response rating [5, 11]: 55 | Plant response rating, Sunflower [5, 12]: 50 | Sunflower plant response rating [5, 13]: 75 | Velvetleaf plant response rating (velvetleaf; [10]): 80 | Velvetleaf plant response rating (velvetleaf; [11]): 98 | Plant response rating, Velvetleaf (velvetleaf; [12]): 10 | Velvetleaf plant response rating (velvetleaf; [13]): 100
